The values below come from patent US4959482A, “Pyrrolidinone compounds and pharamaceutical compositions containing same” (Biofor, Ltd., priority 1988, dated 1990).

For data set [1] the following is noted: U.S. Pat. No. 4,357,345; cited from earlier work.
The conditions of data set [2]: Khimiya Geterotsiklicheskikh Soedinenii, Vol. 12: 1660-1664 (1971); cited from earlier work.
The next data set has as its system yeast-induced fever. The experiment in a line: Antipyretic Evaluation (yeast-induced fever in rats). The class given is in vivo, male Sprague-Dawley rats. As to conditions: 300 mg/kg, oral by gavage nineteen hours after yeast injection. The procedure: Antipyretic: This activity was evaluated by creating a yeast-induced fever in rats according to a modified method of the procedure described by Loux et al in "Toxicology and Applied Pharmacology", Vol. 22: page 672 (1972). In this assay rats injected with yeast in distilled water were dosed with test compounds, aspirin (positive control) and a vehicle (negative control) and the observed differences in body temperature were analyzed statistically.
Antipyretic activity was evaluated using a modification of the test described by Loux et al, in Toxicology and Applied Pharmacology, 22:672 (1972), that is, yeast-induced fever in rats. Each test group consisted of ten male Sprague-Dawley rats (Charles River Laboratories), weighing 180-225 grams each. Eighteen hours prior to compound administration the rats were weighed and body temperatures were recorded. Food was removed with water available ad libitum. […]
Test compounds suspended in 0.25% methylcellulose (0.25% MC) or olive oil were administered orally by gavage nineteen hours following the yeast injection. Body temperatures were taken and recorded one hour after compound administration. […] The mean temperature of the compound-treated groups, positive control group (Aspirin) and negative control group (vehicle) were calculated at 18 hours and 20 hours. The data was analyzed statistically using a paired-samples Student's t-Test.

Data set [3] has as its system Adjuvant arthritis (paw edema). The data set can be described thus: Adjuvant Arthritis Assay; Established. As to conditions: Rattus norvegicus, 552 h; oral, once daily on days 19-22 post adjuvant; paw volume on day 23. The format is in vivo, rats.
Method: In this assay the differences between dosed and non-dosed paw values were determined postadjuvant. […] On day 19 post adjuvant all rats were evenly distributed according to edema size. Doses of treatment or vehicle were administered orally to all rats once daily on days 19-22 inclusive. Final paw volumes were determined on day 23 post adjuvant.
The subject of data set [4] is acetylcholine-induced writhing. The experiment in a line: Acetylcholine Writhing Assay. The format is in vivo, male CD-1 mice. As to conditions: Mus musculus, 0.75 h; oral by gavage, 45 minutes before intraperitoneal acetylcholine; writhes counted for 10 minutes. As for the experimental part:
Analgesic: The "Acetylcholine Writhing Assay" (ACH) of Collier et al [Nature; Vol. 204: page 1316 (1964)]was employed. In this study the test compounds were administered orally to mice and 45 minutes later the mice were injected with acetylcholine. The frequency of writhing was counted in each animal and the response elicited in the drug-treated mice was compared with the response of those given acetylcholine alone.
Analgesic activity was evaluated via the mouse acetylcholine writing test using a modification of the procedure described by Collier, et al in Nature (New Biol.) Vol. 204; page 1316 (1964) and Br. J. Pharmacol, Chemother, Vol. 32: page 295 (1968). Each test group consisted of ten male CD-1 mice (Charles River Laboratories) weighing 18-28 grams each. Test compounds suspended in a mixture of 0.25% methylcellulose solution in […] were administered orally by gavage and forty five minutes later the mice were injected intraperitoneally with acetylcholine (0.55 mg/ml in 0.25% methylcellulose). The number of writhes in each group of mice were counted for 10 minutes immediately following the injection of acetylcholine and the percent inhibition was calculated as follows: [formula] Four dose levels were used to calculate the ED50 of the test compound.
For orientation: An intraperitoneal irritant provokes the stretching counted in writhing tests.

Data set [5] concerns Adjuvant arthritis (hind paw edema). The data set can be described thus: Adjuvant Arthritis Assay; Developing. The format is in vivo, female Lewis rats. The note with it: Rattus norvegicus, 96 h, dosed once daily for 4 days in 0.25% methylcellulose, inhibition of hind paw edema on fifth day. The procedure:
Anti-Inflammatory: This activity was evaluated via a modification of the Adjuvant Arthritis Assay (AA) described by S. […] This assay measures the ability of the test compound to antagonize local edema, a characteristic of the inflammatory response. […] The left and right rear paws of female Lewis rats (Charles River Laboratories) weighing 160-180 grams each were measured by mercury displacement prior to injection (Day Zero). Adjuvant arthritis was induced in this rat colony by subcutaneous injection of Mycobacterium butyricum (0.75 mg in 0.1 ml light mineral oil, Fisher) using an automated Cornwall syringe. On days 11-15 post-adjuvant the injected animals with 0.25 to 0.75 ml. paw edema were selected and distributed evenly, according to edema size, into control and experimental groups of ten rats each. Vehicle control and drug treatments were assigned to the groups at random. The assay was performed using a variable dose level for each test compound per kilogram per day in 0.25% methylcellulose vehicle. All animals were dosed once daily for 4 days and on the fifth day both hind paw volumes were again measured using mercury displacement. The hind paw edema was determined for each rat by subtracting the hind paw volume measured on Day Zero from the hind paw volume measured on the fifth day of the study. Group means were determined and the drug effect was calculate as percent inhibition of the hind paw edema according to the following equation: [formula] […] The known anti-inflammatory NAPROXEN was also tested for comparison purposes.

Data set [6] has the same test system. The data set can be described thus: Adjuvant Arthritis Assay; Immunomodulatory. The note with it: 50 mg/kg, oral, Day 5 to 9; paw edema on Day 15. The class given is in vivo, Lewis female rats. As for the experimental part: Immunomodulatory: This activity was determined by using a Modified Adjuvant Assay procedure in which female rats were injected with Mycobacterium butyricum to induce hind paw edema. The test compounds were administered orally and the difference in volume between dosed and non-dosed paws was determined.
Lewis female rats were injected in the tail subcutaneously with Mycobacterium butyricum (0.75 mg in 0.1 ml light mineral oil, Fisher) on Day Zero. Prior to injection the volumes of the left and right rear paws were measured by mercury displacement. All rats were dosed orally with vehicle or test compounds on Day 5 to 9 inclusive. The volume of both hind paws were determined on Day 15 and the percent inhibitions were calculated based upon average edema on Day 15 relative to the edema mean in the control group.

A further data set can be described thus: LD50 (acute toxicity). The note with it: rat, in vivo; printed after the oral four-day ulcerogenicity study in female Lewis rats.

`CC(C)(C)c1cc(S(=O)(=O)c2ccccc2)cc(C(C)(C)C)c1O` [2,6-di-(tert-butyl)-4-(phenylsulfonyl)phenol]: the anti-inflammatory activity result in data set [1] is listed as “absence of anti-inflammatory activity”.

Take `CC(C)(C)c1cc(C=Cc2ccccn2)cc(C(C)(C)C)c1O` [2-[2-(3',5'-di-tert-butyl-4'-hydroxyphenyl)ethenyl]pyridine]: the “effectiveness in the treatment of tumors” value in data set [2] was “effective in the treatment of tumors”.

Turning to `CC(=O)Oc1ccccc1C(=O)O` [Aspirin], in the data set on yeast-induced fever, the “Change in Temperature, 18-20 Hour Period” value is -2.05 °C.

For `COc1ccc2cc([C@H](C)C(=O)O)ccc2c1` [NAPROXEN], the ED50 – broadly, the dose at which the effect has come halfway, by size or by number of responders – was 28 mg/kg in data set [3], 6.2 mg/kg in data set [4] and 28 mg/kg in data set [5].

`CC(C)(C)c1cc(N2CCCC2=O)cc(C(C)(C)C)c1O` [Example 1, 1-(3,5-Di-tert-Butyl-4-Hydroxyphenyl)Pyrrolidin-2-One]: the “% Inhibition (Adjuvant Arthritis Data-Immunomodulatory)” value in data set [6] came to 39%. Moreover, the ED50 in data set [3] is 36 mg/kg; in data set [4], 13 mg/kg; in data set [5], 21 mg/kg. Besides, the LD50 (commonly the dose expected to kill half of the subjects tested) in the data set “LD50 (acute toxicity)” was > 1000 mg/kg.

On to `CC(C)(C)c1cc(C(N)=O)cc(C(C)(C)C)c1O` [4-carboxamido-2,6-di-(tert-butyl)phenol], for which the anti-inflammatory activity entry in data set [1] was “absence of anti-inflammatory activity”.

As for `CC(=O)c1cc(C(C)(C)C)c(O)c(C(C)(C)C)c1` [4-acetyl-2,6-(di-tert-butyl)phenol], the anti-inflammatory activity result in data set [1] was “absence of anti-inflammatory activity”.

On to `CCCCCCCCc1cc(C(C)(C)C)c(O)c(C(C)(C)C)c1` [4-n-octyl-2,6-di-(tert-butyl)phenol], for which, in data set [1], the anti-inflammatory activity result is given as “absence of anti-inflammatory activity”.

As to `CC(C)(C)c1cccc(C(C)(C)C)c1O` [2,6-di-(tert-butyl)phenol], the anti-inflammatory activity result in data set [1] is on record as “absence of anti-inflammatory activity”.

Regarding `CC(C)(C)c1cc(C=Cc2ccncc2)cc(C(C)(C)C)c1O` [4-[2-(3',5'-di-tert-butyl-4'-hydroxyphenyl)ethenyl]pyridine], in data set [2], the “effectiveness in the treatment of tumors” value is recorded as “effective in the treatment of tumors”.

For the compound `CC(C)(C)c1cc(N2CCCCC2=O)cc(C(C)(C)C)c1O` [Example 2, 1-(3,5-Di-tert-Butyl-4-Hydroxyphenyl)Piperidin-2-One], the ED50 in data set [5] turned out to be 34 mg/kg.

Regarding `Cc1cc(C(C)(C)C)c(O)c(C(C)(C)C)c1` [3,5-di(tert-butyl)-4-hydroxytoluene], in data set [1], the anti-inflammatory activity result was “little or no value as an anti-inflammatory agent”.

For `CC(C)(C)c1cc(C(=O)c2cc(C(=O)O)ccc2Cl)cc(C(C)(C)C)c1O` [4-(5-carboxy-2-chlorobenzoyl)-2,6-di-(tert-butyl)phenol], in data set [1], the anti-inflammatory activity entry is on record as “absence of anti-inflammatory activity”.

For `CC(C)(C)c1cc(C(=O)c2ccccc2Cl)cc(C(C)(C)C)c1O` [4-(2-chlorobenzoyl)-2,6-di-(tert-butyl)phenol], the anti-inflammatory activity result in data set [1] is recorded as “absence of anti-inflammatory activity”.
